Data as given in paper PMC5218480 (PLoS ONE, 2017).

Test system: MV-4-11 cells
Assay: Gene expression microarray analysis (Affymetrix PrimeView) and GSEA
Type: cell-based, human
Set-up: RFU PODN (11730768_x_at) / Fold change /veh PODN (11730768_x_at) / RFU LINC00158 (11744669_a_at) / Fold change /veh LINC00158 (11744669_a_at) / RFU DUSP10 (11751237_a_at) / Fold change /veh DUSP10 (11751237_a_at) / RFU ID3 (11757404_x_at) / Fold change /veh ID3 (11757404_x_at) / RFU PLEKHG5 (11737974_s_at) / Fold change /veh PLEKHG5 (11737974_s_at) / RFU LRRC4B (11730491_at) / Fold change /veh LRRC4B (11730491_at) / RFU GIMAP4 (11747438_a_at) / Fold change /veh GIMAP4 (11747438_a_at) / RFU KRT8 (11758183_x_at) / Fold change /veh KRT8 (11758183_x_at) / RFU CNN1 (11734310_a_at) / Fold change /veh CNN1 (11734310_a_at) / RFU VPS37D (11726825_at) / Fold change /veh VPS37D (11726825_at) / RFU C10orf10 (11716522_x_at) / Fold change /veh C10orf10 (11716522_x_at) / RFU KIR2DL2 /// KIR2DL4 /// KIR2DL5A /// KIR2DL5B /// KIR2DS1 /// KIR2DS2 /// KIR2DS3 /// KIR2DS4 /// KIR3DL3 /// KIR3DL3 /// KIR3DS1 (11738374_at) / Fold change /veh KIR2DL2 /// KIR2DL4 /// KIR2DL5A /// KIR2DL5B /// KIR2DS1 /// KIR2DS2 /// KIR2DS3 /// KIR2DS4 /// KIR3DL3 /// KIR3DL3 /// KIR3DS1 (11738374_at) / RFU C1QL1 (11718748_at) / Fold change /veh C1QL1 (11718748_at) / RFU TMPRSS4 (11747572_a_at) / Fold change /veh TMPRSS4 (11747572_a_at) / RFU HAMP (11756126_x_at) / Fold change /veh HAMP (11756126_x_at) / RFU RNFT2 (11725882_a_at) / Fold change /veh RNFT2 (11725882_a_at) / RFU NR4A2 (11747474_a_at) / Fold change /veh NR4A2 (11747474_a_at) / RFU ABCC12 (11746883_a_at) / Fold change /veh ABCC12 (11746883_a_at) / RFU TMEM136 (11760407_x_at) / Fold change /veh TMEM136 (11760407_x_at) / RFU CLDN22 /// WWC2 (11732394_at) / Fold change /veh CLDN22 /// WWC2 (11732394_at) / RFU HLA-DPB1 (11760878_x_at) / Fold change /veh HLA-DPB1 (11760878_x_at) / RFU SPINT1 (11716480_a_at) / Fold change /veh SPINT1 (11716480_a_at) / RFU GAP43 (11754022_s_at) / Fold change /veh GAP43 (11754022_s_at) / RFU A4GNT (11735810_at) / Fold change /veh A4GNT (11735810_at) / RFU PRB3 (11715151_x_at) / Fold change /veh PRB3 (11715151_x_at) / RFU TUBB4B (11761932_at) / Fold change /veh TUBB4B (11761932_at) / RFU CAPN14 (11732068_a_at) / Fold change /veh CAPN14 (11732068_a_at) / RFU TMCC2 (11721928_a_at) / Fold change /veh TMCC2 (11721928_a_at) / RFU IRGQ (11745062_a_at) / Fold change /veh IRGQ (11745062_a_at) / RFU FAM174B (11720279_a_at) / Fold change /veh FAM174B (11720279_a_at) / RFU TMPRSS4 (11748680_a_at) / Fold change /veh TMPRSS4 (11748680_a_at) / RFU FAM212B (11763350_a_at) / Fold change /veh FAM212B (11763350_a_at) / RFU PLEKHG5 (11743358_a_at) / Fold change /veh PLEKHG5 (11743358_a_at) / RFU ZSCAN30 (11745921_a_at) / Fold change /veh ZSCAN30 (11745921_a_at) / RFU CMKLR1 (11741424_a_at) / Fold change /veh CMKLR1 (11741424_a_at) / RFU LOC101060620 /// MAPK8IP1 (11723275_at) / Fold change /veh LOC101060620 /// MAPK8IP1 (11723275_at) / RFU SPTSSB (11747773_x_at) / Fold change /veh SPTSSB (11747773_x_at) / RFU PRSS12 (11739890_at) / Fold change /veh PRSS12 (11739890_at) / RFU BIN1 (11741810_x_at) / Fold change /veh BIN1 (11741810_x_at) / RFU WNT11 (11732464_a_at) / Fold change /veh WNT11 (11732464_a_at) / RFU C10orf10 (11716521_a_at) / Fold change /veh C10orf10 (11716521_a_at) / RFU C5orf56 (11738089_at) / Fold change /veh C5orf56 (11738089_at) / RFU CYB561 (11721691_x_at) / Fold change /veh CYB561 (11721691_x_at) / RFU ANKRD19P (11752326_a_at) / Fold change /veh ANKRD19P (11752326_a_at) / RFU OR2T12 /// OR2T33 /// OR2T8 (11738714_s_at) / Fold change /veh OR2T12 /// OR2T33 /// OR2T8 (11738714_s_at) / RFU VCAN (11748164_a_at) / Fold change /veh VCAN (11748164_a_at) / RFU JSRP1 (11732532_at) / Fold change /veh JSRP1 (11732532_at) / RFU KRTAP10-11 (11738290_x_at) / Fold change /veh KRTAP10-11 (11738290_x_at) / RFU MYO3A (11730013_a_at) / Fold change /veh MYO3A (11730013_a_at) / RFU EBF3 (11725865_a_at) / Fold change /veh EBF3 (11725865_a_at) / RFU CAMK2N1 (11719241_x_at) / Fold change /veh CAMK2N1 (11719241_x_at) / RFU C5orf56 (11738088_a_at) / Fold change /veh C5orf56 (11738088_a_at) / RFU OLFML3 (11715873_a_at) / Fold change /veh OLFML3 (11715873_a_at) / RFU LOC100653217 /// NTM (11731650_a_at) / Fold change /veh LOC100653217 /// NTM (11731650_a_at) / RFU MAPK11 (11762145_a_at) / Fold change /veh MAPK11 (11762145_a_at) / RFU FIZ1 (11724087_x_at) / Fold change /veh FIZ1 (11724087_x_at) / RFU OASL (11726364_x_at) / Fold change /veh OASL (11726364_x_at) / RFU SOX15 (11748057_x_at) / Fold change /veh SOX15 (11748057_x_at) / RFU CD79A (11719716_a_at) / Fold change /veh CD79A (11719716_a_at) / RFU HIST1H1D (11736915_at) / Fold change /veh HIST1H1D (11736915_at) / RFU CASKIN2 (11723855_a_at) / Fold change /veh CASKIN2 (11723855_a_at) / RFU LOC730098 (11760151_x_at) / Fold change /veh LOC730098 (11760151_x_at) / RFU OR4N2 (11742367_at) / Fold change /veh OR4N2 (11742367_at) / RFU PRRT2 (11749266_a_at) / Fold change /veh PRRT2 (11749266_a_at) / RFU SNX32 (11753110_a_at) / Fold change /veh SNX32 (11753110_a_at) / RFU CDHR5 (11726645_a_at) / Fold change /veh CDHR5 (11726645_a_at) / RFU RCAN1 (11760418_a_at) / Fold change /veh RCAN1 (11760418_a_at) / RFU FAM167A (11723789_a_at) / Fold change /veh FAM167A (11723789_a_at) / RFU FAM26E (11764081_at) / Fold change /veh FAM26E (11764081_at) / RFU ISYNA1 (11749810_s_at) / Fold change /veh ISYNA1 (11749810_s_at) / RFU ACY1 (11761880_at) / Fold change /veh ACY1 (11761880_at) / RFU 11764098_at / Fold change /veh 11764098_at / RFU SAMD14 (11745864_x_at) / Fold change /veh SAMD14 (11745864_x_at) / RFU NPB (11741838_a_at) / Fold change /veh NPB (11741838_a_at) / RFU TMPRSS6 (11731388_a_at) / Fold change /veh TMPRSS6 (11731388_a_at) / RFU KRTAP10-2 (11738614_at) / Fold change /veh KRTAP10-2 (11738614_at) / RFU ARHGAP8 /// PRR5-ARHGAP8 (11727945_x_at) / Fold change /veh ARHGAP8 /// PRR5-ARHGAP8 (11727945_x_at) / RFU KRTAP5-7 /// NADSYN1 (11734609_at) / Fold change /veh KRTAP5-7 /// NADSYN1 (11734609_at) / RFU RASL12 (11751679_a_at) / Fold change /veh RASL12 (11751679_a_at) / RFU CDKN2B (11736163_a_at) / Fold change /veh CDKN2B (11736163_a_at) / RFU PRF1 (11729649_at) / Fold change /veh PRF1 (11729649_at) / RFU, ZNF638 /// ZNF638-IT1 / Fold change vs veh, ZNF638 /// ZNF638-IT1 / RFU, PANK3 / Fold change vs veh, PANK3 / RFU, SH3YL1 / Fold change vs veh, SH3YL1 / RFU, ZEB2 / Fold change vs veh, ZEB2 / RFU, NRIP1 / Fold change vs veh, NRIP1 / RFU, PTTG1IP / Fold change vs veh, PTTG1IP / RFU, CAPN2 / Fold change vs veh, CAPN2 / RFU, MED14 / Fold change vs veh, MED14 / RFU, SNORA58 / Fold change vs veh, SNORA58 / RFU, C1orf63 / Fold change vs veh, C1orf63 / RFU, LRRFIP1 / Fold change vs veh, LRRFIP1 / RFU, NDUFAF7 / Fold change vs veh, NDUFAF7 / RFU, SLC12A2 / Fold change vs veh, SLC12A2 / RFU, IBTK / Fold change vs veh, IBTK / RFU, ESF1 / Fold change vs veh, ESF1 / Fold change vs veh, TMEM50B / RFU, TAOK1 / Fold change vs veh, TAOK1 / RFU, ACBD3 / Fold change vs veh, ACBD3 / RFU, TMA16 / Fold change vs veh, TMA16 / RFU, RWDD3 / Fold change vs veh, RWDD3 / RFU, BCAT1 / Fold change vs veh, BCAT1 / RFU, EDEM3 / Fold change vs veh, EDEM3 / RFU, TMEM33 / Fold change vs veh, TMEM33 / RFU, WDR75 / Fold change vs veh, WDR75 / RFU, AHCTF1 / Fold change vs veh, AHCTF1 / RFU, TFRC / Fold change vs veh, TFRC / RFU, ZDHHC17 / Fold change vs veh, ZDHHC17 / RFU, NOM1 / Fold change vs veh, NOM1 / RFU, ARL8B / Fold change vs veh, ARL8B / RFU, ZBTB11 / Fold change vs veh, ZBTB11 / RFU, TAMM41 / Fold change vs veh, TAMM41 / RFU, KIAA1704 /// LOC100996395 / Fold change vs veh, KIAA1704 /// LOC100996395 / RFU, ING1 / Fold change vs veh, ING1 / RFU, TRMT61B / Fold change vs veh, TRMT61B / RFU, FUBP3 / Fold change vs veh, FUBP3 / RFU, TP53 / Fold change vs veh, TP53 / RFU, TNKS2 / Fold change vs veh, TNKS2 / RFU, ZFP14 / Fold change vs veh, ZFP14 / RFU, ACTR2 / Fold change vs veh, ACTR2 / RFU, PPP3R1 / Fold change vs veh, PPP3R1 / RFU, PIK3R1 / Fold change vs veh, PIK3R1 / RFU, HNRNPA1 / Fold change vs veh, HNRNPA1 / RFU, RNF170 / Fold change vs veh, RNF170 / RFU, ZNF28 / Fold change vs veh, ZNF28 / RFU, RNGTT / Fold change vs veh, RNGTT / RFU, OGT / Fold change vs veh, OGT / RFU, BRD1 / Fold change vs veh, BRD1 / RFU, MARS / Fold change vs veh, MARS / RFU, ZNF655 / Fold change vs veh, ZNF655 / RFU, FAHD1 / Fold change vs veh, FAHD1 / RFU, BDP1 / Fold change vs veh, BDP1 / RFU, LRRCC1 / Fold change vs veh, LRRCC1 / RFU, ARID1A / Fold change vs veh, ARID1A / RFU, ZNF146 / Fold change vs veh, ZNF146 / RFU, ZNF330 / Fold change vs veh, ZNF330 / RFU, GPN3 / Fold change vs veh, GPN3 / RFU, C9orf123 / Fold change vs veh, C9orf123 / RFU, N4BP2L2 / Fold change vs veh, N4BP2L2 / RFU, ARFIP1 / Fold change vs veh, ARFIP1 / RFU, FAM179B / Fold change vs veh, FAM179B / RFU, BCL10 / Fold change vs veh, BCL10 / RFU, UHRF1BP1L / Fold change vs veh, UHRF1BP1L / RFU, BET1 / Fold change vs veh, BET1 / RFU, CNOT2 / Fold change vs veh, CNOT2 / RFU, ZNF268 / Fold change vs veh, ZNF268 / Fold change vs veh, ZNF507 / RFU, DGCR2 / Fold change vs veh, DGCR2 / RFU, WDSUB1 / Fold change vs veh, WDSUB1 / Fold change vs veh, HSP90B1 /// MIR3652 / RFU, ADSS / Fold change vs veh, ADSS / RFU, GK / Fold change vs veh, GK / RFU, ZNF148 / Fold change vs veh, ZNF148 / RFU, TAF9 / Fold change vs veh, TAF9 / RFU, SLC1A5 / Fold change vs veh, SLC1A5 / RFU, SLMO2 / Fold change vs veh, SLMO2 / RFU, ABCC4 / Fold change vs veh, ABCC4 / RFU, LOC101060439 /// RAP1B / Fold change vs veh, LOC101060439 /// RAP1B / RFU, RFX7 / Fold change vs veh, RFX7 / RFU, GTPBP10 / Fold change vs veh, GTPBP10 / RFU, CNEP1R1 / Fold change vs veh, CNEP1R1 / RFU, BIVM-ERCC5 /// ERCC5 / Fold change vs veh, BIVM-ERCC5 /// ERCC5 / RFU, ILF3 / Fold change vs veh, ILF3 / RFU 11762660_at / Fold change /veh 11762660_at / RFU VCAN (11757783_s_at) / Fold change /veh VCAN (11757783_s_at) / RFU DDX43 (11728927_at) / Fold change /veh DDX43 (11728927_at) / RFU KRT8 (11758188_x_at) / Fold change /veh KRT8 (11758188_x_at) / RFU NKD1 (11759106_at) / Fold change /veh NKD1 (11759106_at) / RFU SRD5A1 (11742802_a_at) / Fold change /veh SRD5A1 (11742802_a_at) / RFU TPSAB1 /// TPSB2 (11721975_s_at) / Fold change /veh TPSAB1 /// TPSB2 (11721975_s_at) / RFU GSTM3 (11746129_a_at) / Fold change /veh GSTM3 (11746129_a_at) / RFU IL23R (11737362_x_at) / Fold change /veh IL23R (11737362_x_at) / RFU TMEM51 (11727254_a_at) / Fold change /veh TMEM51 (11727254_a_at) / RFU PIWIL2 (11732686_x_at) / Fold change /veh PIWIL2 (11732686_x_at) / RFU ORM1 (11744905_x_at) / Fold change /veh ORM1 (11744905_x_at) / RFU CCDC152 (11743942_at) / Fold change /veh CCDC152 (11743942_at) / RFU ECM1 (11717891_a_at) / Fold change /veh ECM1 (11717891_a_at) / RFU IL23R (11748794_a_at) / Fold change /veh IL23R (11748794_a_at) / RFU TNFAIP8L3 (11732012_x_at) / Fold change /veh TNFAIP8L3 (11732012_x_at) / RFU MBOAT4 (11741988_at) / Fold change /veh MBOAT4 (11741988_at) / RFU 11764193_at / Fold change /veh 11764193_at / RFU TMEM53 (11763286_at) / Fold change /veh TMEM53 (11763286_at) / RFU MAGEB2 (11727129_at) / Fold change /veh MAGEB2 (11727129_at) / RFU TMEM200A (11744735_a_at) / Fold change /veh TMEM200A (11744735_a_at) / RFU CCDC152 (11751479_a_at) / Fold change /veh CCDC152 (11751479_a_at) / RFU FAM211A (11726209_a_at) / Fold change /veh FAM211A (11726209_a_at) / RFU RGS16 (11746705_a_at) / Fold change /veh RGS16 (11746705_a_at) / RFU VCAN (11755009_s_at) / Fold change /veh VCAN (11755009_s_at) / RFU RHOB (11743442_s_at) / Fold change /veh RHOB (11743442_s_at) / RFU RGS16 (11720943_a_at) / Fold change /veh RGS16 (11720943_a_at) / RFU RGS16 (11720944_at) / Fold change /veh RGS16 (11720944_at) / RFU, VPS4B / Fold change vs veh, VPS4B / RFU, CREB1 / Fold change vs veh, CREB1 / RFU, DNAJC13 / Fold change vs veh, DNAJC13 / RFU, GNAQ / Fold change vs veh, GNAQ / RFU, CDK5R1 / Fold change vs veh, CDK5R1 / RFU, ZRANB3 / Fold change vs veh, ZRANB3 / RFU, CUL4A / Fold change vs veh, CUL4A / RFU, CCNY / Fold change vs veh, CCNY / RFU, UFL1 / Fold change vs veh, UFL1 / RFU, COG3 / Fold change vs veh, COG3 / RFU, DIAPH2 / Fold change vs veh, DIAPH2 / RFU, SKA2 / Fold change vs veh, SKA2 / RFU, AFF3 / Fold change vs veh, AFF3 / RFU, LMF1 / Fold change vs veh, LMF1 / RFU, IPO11 / Fold change vs veh, IPO11 / RFU, DFFB / Fold change vs veh, DFFB / RFU, FOXP1 / Fold change vs veh, FOXP1 / RFU, CARD8 / Fold change vs veh, CARD8 / RFU, STRN3 / Fold change vs veh, STRN3 / RFU, ADK / Fold change vs veh, ADK / RFU, RASSF2 / Fold change vs veh, RASSF2 / RFU, WIPF1 / Fold change vs veh, WIPF1 / RFU, LARP1B / Fold change vs veh, LARP1B / RFU, RASA1 / Fold change vs veh, RASA1 / RFU, RB1 / Fold change vs veh, RB1 / RFU, PPFIA1 / Fold change vs veh, PPFIA1 / RFU, MAT2A / Fold change vs veh, MAT2A / RFU, CCT5 / Fold change vs veh, CCT5 / RFU, WDR92 / Fold change vs veh, WDR92 / RFU, CUX1 / Fold change vs veh, CUX1 / RFU, TTC7A / Fold change vs veh, TTC7A / RFU, TMEM135 / Fold change vs veh, TMEM135 / RFU, DEPTOR / Fold change vs veh, DEPTOR / RFU, CPM / Fold change vs veh, CPM / RFU, DNAJB6 / Fold change vs veh, DNAJB6 / RFU, CACNA2D3 / Fold change vs veh, CACNA2D3 / RFU, DTX4 / Fold change vs veh, DTX4 / RFU, TFCP2 / Fold change vs veh, TFCP2 / RFU, GMCL1 /// GMCL1P1 / Fold change vs veh, GMCL1 /// GMCL1P1 / RFU, AEBP2 / Fold change vs veh, AEBP2 / RFU, SNHG1 /// SNORD22 /// SNORD25 /// SNORD26 /// SNORD27 /// SNORD28 /// SNORD29 /// SNORD31 / Fold change vs veh, SNHG1 /// SNORD22 /// SNORD25 /// SNORD26 /// SNORD27 /// SNORD28 /// SNORD29 /// SNORD31 / Fold change (Aza/veh), C12orf56 (ProbeSet 11735607_a_at) / Fold change (ACY-1035/veh), C12orf56 (ProbeSet 11735607_a_at) / Fold change (Aza/veh), FGFR1OP (ProbeSet 11751329_s_at) / Fold change (ACY-1035/veh), FGFR1OP (ProbeSet 11751329_s_at) / Fold change (Aza/veh), VPS36 (ProbeSet 11739960_a_at) / Fold change (ACY-1035/veh), VPS36 (ProbeSet 11739960_a_at) / RFU SYPL1 (11715823_x_at) / Fold change /veh SYPL1 (11715823_x_at) / RFU IGFBP7 (11715501_s_at) / Fold change /veh IGFBP7 (11715501_s_at) / RFU REEP3 (11722064_at) / Fold change /veh REEP3 (11722064_at) / RFU IGLL1 (11728026_x_at) / Fold change /veh IGLL1 (11728026_x_at): dose or concentration left out as unconfirmed
Conditions: MV-4-11 cells, 48 hours

## Nc1ncn([C@@H]2O[C@H](CO)[C@@H](O)[C@H]2O)c(=O)n1 [azacitidine]
  RFU LOC101060620 /// MAPK8IP1 (11723275_at): 10.14 RFU
